Measurements from patent US9771340B2, “2-aminothiazole derivatives and methods of preparing and using the same” (Huazhong University of Science & Technology, priority 2011, dated 2017).

Key:
PARP-1 = target: T1, PARP-1 (Homo sapiens, UniProt P09874); details: within a concentration of between 2 M and 10 mM (so in the source); positive control; cited from earlier work
T1 construct: purchased R&D 4677-096-K

CD80 in RAW264.7 cells = details: pre-incubated 2 h, then stimulus 12 h
Description: 4. Flow antibodies FITC-labeled anti-CD80, CD86 were added for testing.
Raw264.7: 48-well plate, cells number of […]. Each well was added with 1 mL of culture system. Different concentrations of TJ-M201021 were added, and cells were pre-incubated for 2 h. CPG was then added. A final concentration was 40 ug/mL. Cells were incubated for 12 h at a temperature of 37° C. in an incubator filled with CO2. Flow antibodies FITC-labeled anti-CD80 and CD86 were added for testing.

SH-SY5Y cells [1] = assay: Protection against cobalt chloride-induced hypoxic injury, MTT method and microscope; type: cell-based, human; details: cobalt chloride 600 μM/L for 24 h, FIG. 4, FIG. 6
Description: Dopaminergic neuroblastoma tumor cells SH-SY5Y from human body were employed as experiment cells. Cobalt chloride having a concentration of 600 μM/L was used to treat SH-SY5Y cells for 24 h. […] It was known from the results that the aminothiazole derivatives have good protection on the cell against hypoxic injuries caused by cobalt chloride. Observed under the microscope, cells after being damaged (FIG. 5) had unclear edges, and the number of the cells was decreased. […] The growth of the cells was good.

SH-SY5Y cells [2] = assay: Protection against neuronal apoptosis induced by hydrogen peroxide, MTT method; type: cell-based, human; details: SH-SY5Y cells damaged by H2O2 1000 μM/L for 12 h; concentration of 1 μM
Description: Dopaminergic neuroblastoma tumor cells SH-SY5Y from human body were employed as experiment cells. H2O2 having a concentration of 1000 μM/L was used to treat SH-SY5Y cells for 12 h. Cell viability was approximately 50%, and a hydrogen peroxide damage model was determined MTT method was used to test the protection of TJ-M201018 (1), TJ-M201005 (2), TJ-M201041 (3), TJ-M201021 (4), and TJ-M201064 (5) on the cells damaged by hydrogen peroxide; results were shown in FIG. 3.

T1 sequence (P09874 whole entry): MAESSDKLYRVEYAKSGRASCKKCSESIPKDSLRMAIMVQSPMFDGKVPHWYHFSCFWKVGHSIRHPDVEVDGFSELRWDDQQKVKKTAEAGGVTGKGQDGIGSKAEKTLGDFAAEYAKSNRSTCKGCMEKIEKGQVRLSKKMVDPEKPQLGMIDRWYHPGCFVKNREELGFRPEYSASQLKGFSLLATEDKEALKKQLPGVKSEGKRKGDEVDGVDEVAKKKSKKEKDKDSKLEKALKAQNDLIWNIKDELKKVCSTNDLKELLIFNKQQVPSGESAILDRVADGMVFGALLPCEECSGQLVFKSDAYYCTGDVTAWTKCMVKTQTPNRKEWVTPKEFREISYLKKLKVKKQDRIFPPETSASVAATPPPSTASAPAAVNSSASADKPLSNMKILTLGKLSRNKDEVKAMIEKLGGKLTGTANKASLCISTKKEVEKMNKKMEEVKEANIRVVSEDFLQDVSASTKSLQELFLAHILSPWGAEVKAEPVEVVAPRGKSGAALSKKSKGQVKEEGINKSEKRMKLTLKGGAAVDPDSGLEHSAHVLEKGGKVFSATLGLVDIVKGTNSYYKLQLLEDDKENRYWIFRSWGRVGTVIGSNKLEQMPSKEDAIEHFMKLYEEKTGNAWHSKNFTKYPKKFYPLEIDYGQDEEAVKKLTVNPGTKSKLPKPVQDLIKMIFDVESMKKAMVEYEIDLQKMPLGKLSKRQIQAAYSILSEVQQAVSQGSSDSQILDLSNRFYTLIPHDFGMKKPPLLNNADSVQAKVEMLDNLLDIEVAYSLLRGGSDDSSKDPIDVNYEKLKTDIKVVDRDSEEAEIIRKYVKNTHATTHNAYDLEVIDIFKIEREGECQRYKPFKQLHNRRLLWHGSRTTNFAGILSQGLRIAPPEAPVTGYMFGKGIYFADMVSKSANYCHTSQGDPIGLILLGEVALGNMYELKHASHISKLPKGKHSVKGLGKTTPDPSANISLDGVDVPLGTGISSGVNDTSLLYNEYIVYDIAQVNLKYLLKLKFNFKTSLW

Structure (SMILES) | inhibition effect on the PARP-1 (PARP-1) | increase of the costimulatory molecules CD80 caused by TLR stimuli (LPS, CpG) (CD80 in RAW264.7 cells) | protection on the cell against hypoxic injuries caused by cobalt chloride (SH-SY5Y cells [1]) | cell viability (FIG. 3: increase rate of the cell viability) (SH-SY5Y cells [2])
NC(=O)c1cccc(N)c1 [3-AB] | had an inhibition effect on the PARP-1 | – | – | –
COc1ccc(N2CCN(CCC(=O)Nc3nc(-c4ccccc4)cs3)CC2)cc1 [TJ-M201021] | – | inhibited the increase of the costimulatory molecules CD80 | a large number of cells existed and had clear edges | 30%
